# In article PMC6411751, “Use of machine learning to identify novel, behaviorally active antagonists of the insect odorant receptor co-receptor (Orco) subunit” (Scientific Reports, 2019):
# Where two headings read alike, the source gives them in different places.
# Legend:
# [1] = tested on: Dmel\Or69a; set-up: method as in ref 1 Münch, D., Galizia, C.G. DoOR 2.0 (2016); conditions: ref 1 Münch, D., Galizia, C.G. DoOR 2.0 (2016); cited from earlier work
# [2] = tested on: Agam\ORs; set-up: method as in ref 2-5 (a number printed in a supplementary file, which may have a reference list of its own: not looked up in the article's list); conditions: cited from earlier work
# [3] = target: T1, Agam\Orco (Anopheles gambiae, UniProt Q7QCC7); test: cell-based; assay type: cell-based
# T1 construct: expressed in transfected cells; host or cells: Xenopus laevis oocytes injected with capped cRNA (plasmid pT7TS, gift of L. Zwiebel)
# T1 sequence (Q7QCC7 1-478): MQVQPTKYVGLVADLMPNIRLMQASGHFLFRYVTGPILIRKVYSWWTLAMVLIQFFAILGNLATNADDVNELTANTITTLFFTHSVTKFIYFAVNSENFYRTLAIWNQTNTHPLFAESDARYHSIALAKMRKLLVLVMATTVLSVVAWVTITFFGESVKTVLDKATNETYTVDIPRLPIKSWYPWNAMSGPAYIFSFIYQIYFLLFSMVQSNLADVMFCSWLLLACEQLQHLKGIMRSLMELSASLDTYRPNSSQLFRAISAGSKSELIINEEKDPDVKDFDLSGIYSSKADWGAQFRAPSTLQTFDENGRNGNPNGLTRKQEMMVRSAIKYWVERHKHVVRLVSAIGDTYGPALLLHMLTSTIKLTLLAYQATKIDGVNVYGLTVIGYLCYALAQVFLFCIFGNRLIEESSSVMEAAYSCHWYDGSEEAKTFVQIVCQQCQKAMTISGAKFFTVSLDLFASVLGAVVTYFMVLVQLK
# Method: A 2 hr incubation with collagenase B (Roche) was used to remove follicle cells from oocytes. Capped cRNA for Agam\Orco was synthesized using mMessage mMachine kits (Thermo Fisher Scientific). 25 ng of cRNA was injected into stage V–VI oocytes, followed by a 2–5 day incubation at 18 °C in Barth’s saline (in mM: 88 NaCl, 1 KCl, 2.4 NaHCO3, 0.3 CaNO3, 0.41 CaCl2, 0.82 MgSO4, 15 HEPES, pH 7.4, and 0.05 g/L tetracycline, 0.05 g/L ciprofloxacin, 0.1 g/L amikacin) prior to electrophysiological recordings.
# (§1) An automated parallel electrophysiology system (OpusExpress 6000 A, Molecular Devices) was used to record Orco agonist (OLC12) or odorant induced currents under two-electrode voltage clamp. Oocytes were perfused with ND96 (in mM: 96 NaCl, 2 KCl, 1 CaCl2, 1 MgCl2, 5 HEPES, pH 7.4). DMSO was used to prepare 1 M or 100 mM stock solutions of test compounds, which were then diluted in ND96 on the day of the experiment. Compounds were applied at a flow rate of 1.0 mL/min, with extensive washing in ND96 at 4.6 mL/min between applications. Micropipettes with resistances of 0.2–2.0 MΩ were filled with 3 M KCl. The holding potential was −70 mV. Current responses were filtered (4-pole, Bessel, low pass) at 20 Hz (−3 db) and sampled at 100 Hz. OpusXpress 1.1 software (Molecular Devices) was used to capture and store current responses.
# To measure antagonist activity at Orco, Agam\Orco was activated by the Orco agonist OLC12[34]. […] The current response to OLC12 in the presence of antagonist candidate was compared to the mean of the preceding two responses to OLC12 alone and presented as a percentage[34],[35]. This value was then normalized to the value obtained when the assay was run in the absence of antagonist candidate (sham).
# During development of the training panel (Fig. 2, Tables S1 and S2), all compounds not previously known to be Orco antagonists were tested at a concentration of 3 mM. […] Concentration-inhibition curves were constructed for all compounds eliciting >20 percent inhibition at 3 mM. The same concentration and criteria were used during screening of predicted actives (Fig. 4D) and predicted inactives (Fig. 5C).
# Clampfit 9.1 software (Molecular Devices) was used to perform initial analysis of electrophysiological data. Prism 7 (Graphpad) was used for curve fitting. Concentration-inhibition data were fit to the equation: I = Imax/(1 + (X/IC50)^n) where I represents the current response at a given concentration of inhibitor, X; Imax is the maximal response in the absence of inhibitor; IC50 is the concentration of inhibitor present that allows a half maximal response from OLC12; n is the apparent Hill coefficient.
# [4] = tested on: Dmel\Or67a; set-up: method as in ref 1 Münch, D., Galizia, C.G. DoOR 2.0 (2016); conditions: ref 1 Münch, D., Galizia, C.G. DoOR 2.0 (2016); cited from earlier work
# [5] = tested on: D. melanogaster larvae; test: Larval chemotaxis assay (attraction to ethyl acetate); assay type: in vivo, Drosophila melanogaster; conditions: 10 µL of EA diluted 1:10^−6 in mineral oil vs mineral oil alone; mean ± SEM
# Method: We have previously provided a detailed description of these methods. Briefly, Canton-S (CS) flies were used as wild type (wt). The experimental chamber was a 100 × 15 mm polystyrene Petri dish (VWR) with 20 mL of 1.1% agarose coating the bottom. In this assay, 50 third-instar larvae were placed inside a “starting circle” at the center of the plate (the circle was drawn on the outside bottom of the plate). A line was also drawn that divided the plate in half. Small filter paper discs (d = 6 mm, Whatman Cellulose Filter Paper, # 1030 023) were placed on opposite sides of the plate (see Fig. 8A). Onto each filter paper disc was placed 10 μL of solution, containing either vehicle of dilution (mineral oil), odorant attractant (EA, diluted in mineral oil) or an Orco antagonist compound (diluted in mineral oil). The sides of the plate on which the compounds or vehicle were placed were alternated from experiment to experiment.
# In order to test Orco antagonists for the ability to affect the chemotaxis assay, a large (d = 9 cm) filter paper (Whatman Filter Paper # D00161-S) was adhered with double-sided tape to the inside of the Petri dish lid. This allowed the larvae to be exposed to Orco antagonists in an airborne context. For light repulsion experiments, we used a Zeiss CL6000 LED light source at 76% intensity. Following the 5 min migratory period, plates were photographed, coded and then blind counted. Any larvae still within the starting circle or touching the center line were excluded from the analysis. A Response Index (RI) was calculated as RI = (S − C)/(S + C), where S is the number of larvae on the stimulus (EA) side and C is the number of larvae on the control (mineral oil) side. RI = 1 would indicate complete attraction, RI = −1 would indicate complete repulsion, and RI = 0 would indicate no preference. Statistical significance was assessed using a one-way analysis of the variance followed by Dunnett’s’s post-test.
# [6] = tested on: Dmel\Or83c; set-up: method as in ref 1 Münch, D., Galizia, C.G. DoOR 2.0 (2016); conditions: ref 1 Münch, D., Galizia, C.G. DoOR 2.0 (2016); cited from earlier work
# [7] = tested on: Dmel\Or19a; set-up: method as in ref 1 Münch, D., Galizia, C.G. DoOR 2.0 (2016); conditions: ref 1 Münch, D., Galizia, C.G. DoOR 2.0 (2016); cited from earlier work
# [8] = tested on: Dmel\Or71a; set-up: method as in ref 1 Münch, D., Galizia, C.G. DoOR 2.0 (2016); conditions: ref 1 Münch, D., Galizia, C.G. DoOR 2.0 (2016); cited from earlier work
# [9] = tested on: Cqui\Or21 + Cqui\Orco; test: Inhibition of heteromeric OR in oocytes (3-methylindole or OLC12 activation); assay type: cell-based, Culex quinquefasciatus; conditions: Orco agonist activation of Cqui\Or21 + Cqui\Orco
# Method: as §1
# (§2) To measure the ability of Orco antagonists to inhibit odorant activation, oocytes expressing heteromeric ORs (Orco + ORX) were exposed to a 30 sec application of odorant followed by a 20 min wash. Oocytes were then exposed to a 90 sec application of Orco antagonist, immediately followed by a 30 sec co-application of Orco antagonist and odorant. The current response to odorant in the presence of Orco antagonist was compared to the preceding response to odorant alone and represented as a percentage. This value was then normalized to the value obtained when the assay was run in the absence of antagonist (sham).
# (§3) Figure S3. Effects of Orco antagonists on heteromeric ORs. […]
# (§4) heteromeric complexes of odorant specificity subunits and Orco. The Orco antagonists tested were 3-isopropyl-6-methyl-catechol (3 I6 MC), a potent compound from the input training set, and two compounds id e ntified in Fig u re 4 an d Ta b le 1 : 2-tert-butyl-6-methylphenol (B MP ) and linalyl formate (LF) . These compounds were tested for antagonist activity against odorant activation of three ORs from Anopheles gambiae (Agam\Or28 + Agam\Orco, Agam\Or39 + A ga m\Orco, Agam\Or65 + A ga m\Orco), o ne O R fro m Culex quinquefasciatus, the southern house mosquito (Cq u i\Or21 + Cqui\Orco) an d on e O R f ro m Drosophila melanogaster (Dme l\Or35a + Dmel\Orco). Each OR was activated by its cognate odorant agonist applied at an approximate EC50 concentration. […]
# (§5) SEM (n = 4). […] Statistical significance of the data in each panel was assessed by one-way analysis of variance followed by Dunnett’s multiple comparison test using the pre-normalized values for each antagonist compared to the values obtained in the sham recordings (*, p < 0 .0 5; **, p < 0. 01; ***, p < 0 . 00 1 ).
# [10] = target: T2, Dmel\Or35a + Dmel\Orco (Drosophila melanogaster, UniProt Q9VNB5); test: Inhibition of heteromeric OR in oocytes (hexanol or OLC12 activation); assay type: cell-based; conditions: Orco agonist activation of Dmel\Or35a + Dmel\Orco
# T2 construct: expressed in transfected cells; host or cells: Xenopus laevis oocytes
# T2 sequence (Q9VNB5 1-486): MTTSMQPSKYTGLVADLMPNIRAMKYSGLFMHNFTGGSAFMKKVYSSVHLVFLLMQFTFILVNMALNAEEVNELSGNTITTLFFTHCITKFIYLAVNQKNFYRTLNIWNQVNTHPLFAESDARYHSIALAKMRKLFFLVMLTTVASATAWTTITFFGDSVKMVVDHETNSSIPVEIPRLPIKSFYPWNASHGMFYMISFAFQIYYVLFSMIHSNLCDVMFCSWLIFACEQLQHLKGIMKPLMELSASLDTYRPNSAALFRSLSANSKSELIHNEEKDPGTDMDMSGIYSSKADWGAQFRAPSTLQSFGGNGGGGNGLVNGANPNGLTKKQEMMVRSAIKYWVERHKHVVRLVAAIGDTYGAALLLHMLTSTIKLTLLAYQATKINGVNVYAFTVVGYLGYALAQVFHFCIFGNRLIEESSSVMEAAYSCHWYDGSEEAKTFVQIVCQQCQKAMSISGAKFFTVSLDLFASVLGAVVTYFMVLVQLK
# T2 sequence (Q9V3Q2 1-409 partner): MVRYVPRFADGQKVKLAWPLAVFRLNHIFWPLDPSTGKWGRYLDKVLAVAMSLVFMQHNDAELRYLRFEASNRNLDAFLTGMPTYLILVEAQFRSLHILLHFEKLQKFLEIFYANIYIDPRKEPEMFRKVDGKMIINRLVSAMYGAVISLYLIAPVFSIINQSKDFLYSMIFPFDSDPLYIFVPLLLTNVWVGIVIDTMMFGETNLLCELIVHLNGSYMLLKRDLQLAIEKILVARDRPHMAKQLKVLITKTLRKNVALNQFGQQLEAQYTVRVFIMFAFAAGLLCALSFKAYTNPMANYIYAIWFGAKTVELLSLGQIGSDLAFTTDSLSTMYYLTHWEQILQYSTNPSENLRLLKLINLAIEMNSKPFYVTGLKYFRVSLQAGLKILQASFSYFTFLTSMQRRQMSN
# Method: as §1, §2, §3, §4, §5
# [11] = tested on: Dmel\Or22a; set-up: method as in ref 1 Münch, D., Galizia, C.G. DoOR 2.0 (2016); conditions: ref 1 Münch, D., Galizia, C.G. DoOR 2.0 (2016); cited from earlier work
# [12] = tested on: Dmel\Or92a; set-up: method as in ref 1 Münch, D., Galizia, C.G. DoOR 2.0 (2016); conditions: ref 1 Münch, D., Galizia, C.G. DoOR 2.0 (2016); cited from earlier work
# [13] = tested on: Dmel\Or85b; set-up: method as in ref 1 Münch, D., Galizia, C.G. DoOR 2.0 (2016); conditions: ref 1 Münch, D., Galizia, C.G. DoOR 2.0 (2016); cited from earlier work
# [14] = Table S1, training actives, Agam\Orco activated by 30 µM OLC12, mean ± SEM (n = 3-8), read-out: IC50
compound,measurement,setting,value
CCc1ccccc1O [2-ethylphenol],scaled response from DoOR (max = 1.0),[1],0.356
same,activity at Agam\ORs,"[2]; Or2, Or9, Or10, Or11, Or14, Or18, Or20, Or38, Or41, Or50, Or57",activation
same,IC50,[3],261 ± 14 µM
same,loss of potency relative to BMP,[3]; Agam\Orco IC50 compared with BMP,5.5 fold
CCOC(=O)/C=C/c1ccccc1 [ethyl-trans-cinnamate],scaled response from DoOR (max = 1.0),[4],0.143
same,IC50,[3]; [14],134 ± 16 µM
"CCOC(C)=O [ethyl acetate, reference compound]",response index (RI),[5],0.76 ± 0.08
same,inhibition at 3000 µM,"[3]; read-out: inhibition of Agam\Orco (OLC12 response) at 3 mM, 3 mM compound, 30 µM OLC12",≤ 20%
CC(C)=CCCC(C)=CCCC(C)=CC=O [farnesal],scaled response from DoOR (max = 1.0),[6],0.046
O=C/C=C/c1ccccc1 [trans-cinnamaldehyde],scaled response from DoOR (max = 1.0),[7],0.112
same,IC50,[3],1870 ± 94 µM
CC(O)CCc1ccccc1 (stereo not shown) [4-phenyl-2-butanol],scaled response from DoOR (max = 1.0),[8],0.063
"CCn1c(SCC(=O)Nc2ccc(C(C)C)cc2)nnc1-c1ccncc1 [OLC12, 2-((4-Ethyl-5-(4-pyridinyl)-4H-1,2,4-triazole-3-yl)sulfanyl)-N-(4-isopropylphenyl)acetamide, reference compound]",approximate EC25,[9],~3 µM
same,approximate EC25,[10],~10 µM
CC(C)=CCC/C(C)=C/C=O [citral],scaled response from DoOR (max = 1.0),[11],0.140
same,scaled response from DoOR (max = 1.0),[1],0.483
same,scaled response from DoOR (max = 1.0),[12],0.325
same,IC50,[3]; [14],452 ± 44 µM
Cc1ccc(C(C)C)cc1 [p-cymene],scaled response from DoOR (max = 1.0),[8],0.063
C=Cc1ccc(O)cc1 [4-hydroxystyrene],scaled response from DoOR (max = 1.0),[8],0.131
CC(C)=CCC[C@@H](C)CC=O [citronellal],activity at Agam\ORs (basal activity),"[2]; Or5, Or12, Or15, Or25, Or45, Or73",inhibition of basal
same,activity at Agam\ORs,"[2]; Or30, Or31, Or48, Or50, Or75",activation
same,scaled response from DoOR (max = 1.0),[6],0.092
CC(C)c1ccc(C=O)cc1 [4-isopropylbenzaldehyde],scaled response from DoOR (max = 1.0),[7],0.351
same,scaled response from DoOR (max = 1.0),[13],0.222
